{"source": "ChEMBL document CHEMBL1201862", "about": "“PubChem BioAssay data set” (2004)", "key": {"[1]": {"experiment": "viability inhibitors of stage V gametocytes – luminescence, dose response (AID 1117278);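 also: gametocytes exposed to compound for 24 hours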", "assay_type": "functional, cell-based"}, "[2]": {"experiment": "viability loss in human Jurkat cells – cell-based, luminescence, cytotoxicity control for P. falciparum gametocyte viability project, dose response (AID 1117277);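 also: potency reflects loss of cellular ATP meaning fewer viable cells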", "assay_type": "functional"}, "[3]": {"molecular_target": "T1, Mannose-6-phosphate isomerase (Homo sapiens, UniProt P34949)", "T1 sequence (P34949 whole entry)": "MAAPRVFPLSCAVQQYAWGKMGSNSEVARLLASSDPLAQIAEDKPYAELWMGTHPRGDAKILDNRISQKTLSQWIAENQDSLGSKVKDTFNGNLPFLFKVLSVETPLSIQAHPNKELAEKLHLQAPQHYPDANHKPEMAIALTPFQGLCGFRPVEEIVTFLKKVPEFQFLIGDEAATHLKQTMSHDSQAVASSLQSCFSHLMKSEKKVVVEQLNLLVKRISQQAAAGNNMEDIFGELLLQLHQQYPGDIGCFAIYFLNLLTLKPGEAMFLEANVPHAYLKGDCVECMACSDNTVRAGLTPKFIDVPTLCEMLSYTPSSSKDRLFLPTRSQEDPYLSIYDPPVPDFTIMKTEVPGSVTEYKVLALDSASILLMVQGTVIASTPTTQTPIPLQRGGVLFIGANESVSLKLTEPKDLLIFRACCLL", "experiment": "MPI inhibition at elevated mannose 6-phosphate – biochemical, fluorescence intensity, high mannose 6-phosphate, primary screen (AID 1220)"}, "[4]": {"experiment": "A549 cell cytotoxicity, dose response, cytotoxicity control, plate reader, cherry-pick, antagonist series (AID 743412)", "assay_type": "functional, cell-based"}, "[5]": {"experiment": "blockade of melanocortin 4 receptor signaling – cell-based, plate reader, cherry pick, counter-screen for LGR2 antagonist project, dose response (AID 743444);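 also: transfected HEK 293 cells stimulated with alpha-MSH peptide; potency of inhibitors of the alpha-MSH evoked signal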", "assay_type": "functional"}, "[6]": {"experiment": "toxicity toward HepG2 liver cells – cell-based, plate reader, cherry-pick, antagonist series, cytotoxicity control, dose response (AID 743416)", "assay_type": "functional"}, "Prothrombin": {"molecular_target": "Prothrombin (Homo sapiens, UniProt P00734)", "experiment": "Thrombin 1536 HTS Dose Response Confirmation. [Related pubchem assays: 1046 (Thrombin 1536 HTS; hits were confirmed in this assay)]", "assay_type": "functional"}, "[7]": {"experiment": "growth inhibition of yeast DHODH-expressing 3D7 parasites – SYBR Green, dry powder samples, dose response (AID 1159570);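 also: parasite growth measured after 72 hours of compound exposure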", "assay_type": "functional, cell-based"}, "[8]": {"experiment": "growth inhibition of PfATP4-mutant resistant parasites – NITD609-resistant line, SYBR Green, dry powder, dose response (AID 1159571);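 also: parasites synchronized at ring stage by sorbitol before testing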", "assay_type": "functional, cell-based"}, "[9]": {"experiment": "Dd2 malaria parasite growth inhibition potency – SYBR Green, dry powder samples, dose response (AID 1159566);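 also: potency for growth inhibition with lower SYBR green DNA signal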", "assay_type": "functional, cell-based"}, "[10]": {"experiment": "P. falciparum Dd2 growth inhibitors, dose response, SYBR Green, cherry-picked samples (AID 1159567)", "assay_type": "functional, cell-based"}, "[11]": {"experiment": "Trypanosoma cruzi growth suppression in host cells – NIH3T3 host cells, beta-gal luminescence, confirmation (AID 2044);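 also: luminescent beta-galactosidase reporter signal from transgenic T. cruzi replicating inside host cells; inhibitors lower the luminescence signal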", "assay_type": "functional, cell-based"}, "[12]": {"experiment": "NIH3T3 cell viability loss – ATP luminescence, mouse fibroblasts, counter-screen, dose response (AID 2010);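 also: cells exposed to compound for about 90 hours before reading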", "assay_type": "functional, cell-based"}, "HeLa": {"test_system": "HeLa", "experiment": "ATP-based viability loss in HeLa cells – cell-based, CellTiter-Glo luminescence, cherry-pick samples, cytotoxicity control for MITF activator project, dose response (AID 540259)", "assay_type": "functional", "settings": "Homo sapiens"}, "[13]": {"molecular_target": "T2, Calpain-2 catalytic subunit (Sus scrofa, UniProt P43367)", "T2 sequence (P43367 whole entry)": "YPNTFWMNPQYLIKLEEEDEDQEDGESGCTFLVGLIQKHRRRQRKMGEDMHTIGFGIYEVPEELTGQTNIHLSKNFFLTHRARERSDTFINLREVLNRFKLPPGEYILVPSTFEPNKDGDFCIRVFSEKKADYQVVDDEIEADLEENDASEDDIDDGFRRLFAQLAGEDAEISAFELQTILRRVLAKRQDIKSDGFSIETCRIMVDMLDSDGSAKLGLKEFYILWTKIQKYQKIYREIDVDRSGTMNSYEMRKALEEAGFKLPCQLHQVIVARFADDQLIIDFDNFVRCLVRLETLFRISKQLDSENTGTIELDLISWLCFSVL", "experiment": "m-calpain protease blockers, concentration series – biochemical, fluorogenic peptide substrate, dose response (AID 1420)", "assay_type": "functional"}, "cells": {"experiment": "cells", "assay_type": "functional"}, "[14]": {"molecular_target": "FAD-linked sulfhydryl oxidase ALR (Homo sapiens, UniProt P55789)", "sequence (P55789 whole entry)": "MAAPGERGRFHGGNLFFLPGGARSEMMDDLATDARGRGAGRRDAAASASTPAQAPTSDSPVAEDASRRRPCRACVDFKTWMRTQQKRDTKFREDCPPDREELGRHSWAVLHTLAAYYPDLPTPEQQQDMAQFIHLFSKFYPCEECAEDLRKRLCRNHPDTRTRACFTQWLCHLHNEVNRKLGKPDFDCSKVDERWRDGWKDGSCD", "experiment": "ALR-catalysed DTT oxidation blockers – biochemical, H2O2 detection, luminescence, cherry-pick, dose response (AID 493248)"}, "[15]": {"experiment": "Luminescence Cell-Based Dose Retest to Confirm Inhibitors of Cancer Stem Cells. [Related pubchem assays (depositor defined):AID2717, AID2721]", "assay_type": "functional", "settings": "Homo sapiens"}, "[16]": {"molecular_target": "T3, Polyadenylate-binding protein 1 (Homo sapiens, UniProt P11940)", "T3 sequence (P11940 whole entry, the tested form may be a part)": "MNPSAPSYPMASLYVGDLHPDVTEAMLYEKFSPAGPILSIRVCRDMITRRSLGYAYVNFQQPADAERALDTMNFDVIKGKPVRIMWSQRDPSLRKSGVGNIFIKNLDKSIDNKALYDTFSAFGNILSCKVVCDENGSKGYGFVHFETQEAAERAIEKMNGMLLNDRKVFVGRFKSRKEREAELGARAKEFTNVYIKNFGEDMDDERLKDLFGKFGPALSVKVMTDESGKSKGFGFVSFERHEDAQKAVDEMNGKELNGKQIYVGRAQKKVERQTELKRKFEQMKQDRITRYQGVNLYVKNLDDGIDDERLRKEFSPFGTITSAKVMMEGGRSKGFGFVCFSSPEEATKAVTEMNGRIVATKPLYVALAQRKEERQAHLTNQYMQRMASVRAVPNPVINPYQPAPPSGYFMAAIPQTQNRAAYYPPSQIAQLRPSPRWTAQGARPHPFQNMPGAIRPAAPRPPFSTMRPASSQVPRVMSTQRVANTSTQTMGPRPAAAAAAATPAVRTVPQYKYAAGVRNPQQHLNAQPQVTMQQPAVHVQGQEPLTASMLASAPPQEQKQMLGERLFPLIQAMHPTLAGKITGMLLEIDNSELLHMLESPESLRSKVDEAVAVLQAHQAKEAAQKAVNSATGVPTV", "experiment": "MLLE domain peptide-binding blockers, IC50 – biochemical, fluorescence polarization, FITC-PAM2 peptide, dose response (AID 602259)", "assay_type": "functional", "settings": "read-out: IC50_Mean"}, "[17]": {"molecular_target": "T3, Polyadenylate-binding protein 1", "experiment": "MLLE binding blockers, Cy5 peptide tracer – biochemical, fluorescence polarization, Cy5-PAM2 peptide, secondary, miRNA deadenylation inhibitor project, dose response (AID 602260)", "assay_type": "functional", "settings": "read-out: IC50_Mean"}}, "note": "Activity calls are given as the source filed them.", "data": [{"smiles": "Cc1cccc(NC(=O)c2cc3n(n2)C(C(F)(F)F)CC(C2CC2)N3)c1C", "note": "(stereo unspecified)", "values": [{"measurement": "IC50", "setting": "[1]", "value": "> 109 µM (inactive)"}, {"measurement": "IC50", "setting": "[2]", "value": "> 83.3 µM (inactive)"}]}, {"smiles": "C/N=C(/c1ccco1)n1c(=S)nc(-c2ccco2)n(C)c1=S", "values": [{"measurement": "IC50", "setting": "[3]", "value": "> 50 µM (not active)"}]}, {"smiles": "C[C@H]1CN([C@@H](C)CO)C(=O)c2cc(NC(=O)Nc3ccccc3)ccc2O[C@H]1CN(C)Cc1ccc(-c2ccccc2)cc1", "values": [{"measurement": "AC50", "setting": "[4]", "value": "24.2 µM (active)"}, {"measurement": "AC50", "setting": "[5]", "value": "39.4 µM (active)"}, {"measurement": "AC50", "setting": "[6]", "value": "> 52 µM (inactive)"}]}, {"smiles": "CC(C)c1ccc(-c2c(C#N)c(N)nc(SCC(=O)N3CCCCCC3)c2C#N)cc1", "values": [{"measurement": "IC50", "setting": "Prothrombin", "value": "> 50 µM (not active)"}]}, {"smiles": "COc1ccc2c3c([nH]c2c1)[C@H](CO)NCC31CCN(C(=O)Nc2ccc3c(c2)OCO3)CC1", "values": [{"measurement": "AC50", "setting": "[7]", "value": "1.41 µM (active)"}, {"measurement": "AC50", "setting": "[8]", "value": "0.949 µM (active)"}, {"measurement": "AC50", "setting": "[9]", "value": "0.49 µM (active)"}, {"measurement": "AC50", "setting": "[10]", "value": "0.914 µM (active)"}]}, {"smiles": "Oc1ccc(CNc2ccc(F)cc2)c2cccnc12", "values": [{"measurement": "IC50", "setting": "[3]", "value": "31 µM (active)"}, {"measurement": "EC50", "setting": "[11]", "value": "5.56 µM (active)"}, {"measurement": "EC50", "setting": "[12]", "value": "> 60 µM (not active)"}]}, {"smiles": "CCOC(=O)N1CCN(C(=O)c2ccccc2N(C)S(C)(=O)=O)CC1", "values": [{"measurement": "IC50", "setting": "Prothrombin", "value": "> 50 µM (not active)"}]}, {"smiles": "COc1ccc(OC)c(C2=NOC(C(=O)Nc3cc(C)on3)C2)c1", "note": "(stereo unspecified)", "values": [{"measurement": "IC50", "setting": "[1]", "value": "> 109 µM (inactive)"}, {"measurement": "IC50", "setting": "[2]", "value": "> 83.4 µM (inactive)"}]}, {"smiles": "CCC(Oc1ccccc1)C(=O)NCc1ccc(S(N)(=O)=O)cc1", "note": "(stereo unspecified)", "values": [{"measurement": "IC50", "setting": "[1]", "value": "> 109 µM (inactive)"}, {"measurement": "IC50", "setting": "[2]", "value": "> 83.3 µM (inactive)"}]}, {"smiles": "Cc1ccc(C(=O)Oc2cccc(-n3cnnn3)c2)cc1", "values": [{"measurement": "AC50", "setting": "HeLa", "value": "> 350 µM (inactive)"}, {"measurement": "IC50", "setting": "[13]", "value": "10.5 µM (not active)"}, {"measurement": "IC50", "setting": "cells", "value": "13.7 µM (active)"}]}, {"smiles": "Clc1ccc(N/N=C/c2cccnc2)cc1", "values": [{"measurement": "AC50", "setting": "HeLa", "value": "41.7 µM (active)"}, {"measurement": "AC50", "setting": "[14]", "value": "0.426 µM (active)"}, {"measurement": "AC50", "setting": "[15]", "value": "4.65 µM (active)"}]}, {"smiles": "COCC(C)n1c(C)cc(C(=O)COC(=O)c2ccc3c(c2)NC(=O)CS3)c1C", "note": "(stereo unspecified)", "values": [{"measurement": "IC50", "setting": "[16]", "value": "> 66 µM (inactive)"}, {"measurement": "IC50", "setting": "[17]", "value": "> 66 µM (inactive)"}]}, {"smiles": "O=C1OC(c2ccccc2)C2(CCCC2)C(=O)C12CCCC2", "note": "(stereo unspecified)", "values": [{"measurement": "IC50", "setting": "[1]", "value": "> 109 µM (inactive)"}, {"measurement": "IC50", "setting": "[2]", "value": "> 83.3 µM (inactive)"}]}, {"smiles": "Nc1cc(Nc2ccccc2)c2nonc2c1[N+](=O)[O-]", "values": [{"measurement": "IC50", "setting": "[16]", "value": "> 66 µM (inactive)"}, {"measurement": "IC50", "setting": "[17]", "value": "> 66 µM (inactive)"}]}]}
